Results: ChEMBL document CHEMBL1127755, “Comparative molecular field analysis using GRID force-field and GOLPE variable selection methods in a study of inhibitors of glycogen phosphorylase b” (J Med Chem, 1994)

Target: Glycogen phosphorylase, muscle form (Oryctolagus cuniculus) (UniProt P00489)
Assay: Tested for inhibition constant against glycogen phosphorylase b
Design: scale not given here

Glycogen phosphorylase, muscle form (Oryctolagus cuniculus), sequence (P00489 whole entry, looked up): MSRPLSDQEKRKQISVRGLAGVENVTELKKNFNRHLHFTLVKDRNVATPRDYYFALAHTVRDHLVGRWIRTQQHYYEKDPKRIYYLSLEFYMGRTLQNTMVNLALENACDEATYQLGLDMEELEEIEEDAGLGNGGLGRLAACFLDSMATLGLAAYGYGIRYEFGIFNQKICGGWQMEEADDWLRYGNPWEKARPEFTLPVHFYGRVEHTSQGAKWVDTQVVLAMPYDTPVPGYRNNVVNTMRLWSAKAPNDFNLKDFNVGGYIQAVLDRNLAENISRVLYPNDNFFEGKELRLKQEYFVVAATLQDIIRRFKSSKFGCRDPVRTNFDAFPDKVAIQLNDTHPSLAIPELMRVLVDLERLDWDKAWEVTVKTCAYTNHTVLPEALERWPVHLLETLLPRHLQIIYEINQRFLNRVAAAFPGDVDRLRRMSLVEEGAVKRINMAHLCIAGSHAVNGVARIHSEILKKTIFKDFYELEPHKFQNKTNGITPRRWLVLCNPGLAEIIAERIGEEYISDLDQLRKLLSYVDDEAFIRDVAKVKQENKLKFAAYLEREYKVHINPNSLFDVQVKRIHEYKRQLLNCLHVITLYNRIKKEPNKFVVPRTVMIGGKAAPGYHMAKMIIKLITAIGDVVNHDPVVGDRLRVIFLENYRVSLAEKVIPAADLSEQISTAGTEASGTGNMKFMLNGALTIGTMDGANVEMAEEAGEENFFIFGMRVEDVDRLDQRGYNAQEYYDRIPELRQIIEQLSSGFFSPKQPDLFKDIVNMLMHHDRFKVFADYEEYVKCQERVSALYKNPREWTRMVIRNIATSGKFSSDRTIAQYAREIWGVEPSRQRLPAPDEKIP

**Q.** How did the Exp Inhib Constant turn out when OCC1OC(S)C(O)C(O)C1O (stereo not given) was run?
**A.** The Exp Inhib Constant was 0.

**Q.** For O=C(Nc1ccccc1)C1OC(CO)C(O)C(O)C1O (stereo not given), which Exp Inhib Constant is on record?
**A.** The Exp Inhib Constant was 2.53.

**Q.** OC[C@H]1O[C@@H](Oc2cc3ccccc3[nH]2)[C@H](O)[C@@H](O)[C@@H]1O was tested. Which Exp Inhib Constant did it give?
**A.** Its Exp Inhib Constant is 0.96.

**Q.** Which Exp Inhib Constant does the source give for CC1OC(CO)C(O)C(O)C1O (stereo not given) here?
**A.** The Exp Inhib Constant was 3.97.

**Q.** [N-]=[N+]=NC[C@H]1O[C@H](CO)[C@@H](O)[C@H](O)[C@H]1O was tested. Which Exp Inhib Constant did it give?
**A.** The Exp Inhib Constant was 3.11.

**Q.** With OC[C@@H]1O[C@@](O)(CO)[C@@H](O)[C@@H](O)[C@@H]1O as the compound, how does the Exp Inhib Constant read?
**A.** Its Exp Inhib Constant is 2.76.

**Q.** How did the Exp Inhib Constant turn out when CS(=O)(=O)OCC1OC(CO)C(O)C(O)C1O (stereo not given) was run?
**A.** Its Exp Inhib Constant is 1.57.

**Q.** With COC(=O)C1OC(CO)C(O)C(O)C1O (stereo in doubt; 31) as the compound, how does the Exp Inhib Constant read?
**A.** The Exp Inhib Constant was 3.19.

**Q.** How did the Exp Inhib Constant turn out when NCC1OC(CO)C(O)C(O)C1O (stereo in doubt; 14) was run?
**A.** Its Exp Inhib Constant is 3.54.

**Q.** How did the Exp Inhib Constant turn out when COC(=O)C1OC(CO)C(O)C(O)C1O (stereo in doubt; 33) was run?
**A.** Its Exp Inhib Constant is 0.92.

**Q.** For O[C@@H]1[C@@H](O)[C@@H](O)O[C@H](CS)[C@H]1O, which Exp Inhib Constant is on record?
**A.** Its Exp Inhib Constant is 0.69.

**Q.** With O=C(CCl)N[C@H]1O[C@H](CO)[C@@H](O)[C@H](O)[C@H]1O as the compound, how does the Exp Inhib Constant read?
**A.** The Exp Inhib Constant was -3.22.

**Q.** NC(=O)C1OC(CO)C(O)C(O)C1O (stereo in doubt; 20) was tested. Which Exp Inhib Constant did it give?
**A.** The Exp Inhib Constant was -0.99.

**Q.** How did the Exp Inhib Constant turn out when OCc1ccccc1O[C@H]1O[C@H](CO)[C@@H](O)[C@H](O)[C@H]1O was run?
**A.** The Exp Inhib Constant was 2.15.

**Q.** How did the Exp Inhib Constant turn out when NCC1OC(CO)C(O)C(O)C1O (stereo in doubt; 15) was run?
**A.** Its Exp Inhib Constant is 2.82.

**Q.** With NC(=O)[C@H]1O[C@H](CO)[C@@H](O)[C@H](O)[C@H]1O as the compound, how does the Exp Inhib Constant read?
**A.** Its Exp Inhib Constant is 3.6.

**Q.** Which Exp Inhib Constant does the source give for OCC1OC(CO)C(O)C(O)C1O (stereo in doubt; 9) here?
**A.** Its Exp Inhib Constant is 0.41.

**Q.** With NC(=O)C1OC(CO)C(O)C(O)C1O (stereo in doubt; 27) as the compound, how does the Exp Inhib Constant read?
**A.** The Exp Inhib Constant was -0.82.

**Q.** With OCC1OC(CO)C(O)C(O)C1O (stereo in doubt; 10) as the compound, how does the Exp Inhib Constant read?
**A.** Its Exp Inhib Constant is 3.09.

**Q.** NNC(=O)[C@@H]1O[C@H](CO)[C@@H](O)[C@H](O)[C@H]1O (stereo in doubt; 35) was tested. Which Exp Inhib Constant did it give?
**A.** Its Exp Inhib Constant is -0.92.

**Q.** N#CC[C@@H]1O[C@H](CO)[C@@H](O)[C@H](O)[C@H]1O was tested. Which Exp Inhib Constant did it give?
**A.** Its Exp Inhib Constant is 2.2.

**Q.** CO[C@@H]1O[C@H](CO)[C@H](O)[C@H](O)[C@H]1O was tested. Which Exp Inhib Constant did it give?
**A.** Its Exp Inhib Constant is 3.21.

**Q.** For [N-]=[N+]=NC[C@@]1(O)O[C@@H](CO)[C@@H](O)[C@H](O)[C@@H]1O, which Exp Inhib Constant is on record?
**A.** The Exp Inhib Constant was 2.

**Q.** O=C(Nc1ccc(O)cc1)C1OC(CO)C(O)C(O)C1O (stereo not given) was tested. Which Exp Inhib Constant did it give?
**A.** Its Exp Inhib Constant is 1.72.

**Q.** NC(=O)[C@@H]1O[C@H](CO)[C@@H](O)[C@H](O)[C@H]1O was tested. Which Exp Inhib Constant did it give?
**A.** Its Exp Inhib Constant is -1.61.

**Q.** For OCC1OC(F)C(F)C(O)C1O (stereo not given), which Exp Inhib Constant is on record?
**A.** The Exp Inhib Constant was -1.61.

**Q.** Which Exp Inhib Constant does the source give for OCCO[C@@H]1O[C@H](CO)[C@@H](O)[C@H](O)[C@H]1O here?
**A.** Its Exp Inhib Constant is 3.23.

**Q.** Which Exp Inhib Constant does the source give for NC(=O)CS[C@H]1O[C@H](CO)[C@@H](O)[C@H](O)[C@H]1O here?
**A.** Its Exp Inhib Constant is 3.05.

**Q.** Which Exp Inhib Constant does the source give for [N-]=[N+]=NC[C@@H]1O[C@H](CO)[C@@H](O)[C@H](O)[C@H]1O here?
**A.** The Exp Inhib Constant was 2.72.

**Q.** Which Exp Inhib Constant does the source give for CS(=O)(=O)OC[C@]1(O)O[C@@H](CO)[C@@H](O)[C@H](O)[C@@H]1O here?
**A.** Its Exp Inhib Constant is 1.31.

**Q.** For NCCC1OC(CO)C(O)C(O)C1O (stereo not given), which Exp Inhib Constant is on record?
**A.** The Exp Inhib Constant was 1.5.

**Q.** CO[C@H]1O[C@H](CO)[C@H](O)[C@H](O)[C@H]1O was tested. Which Exp Inhib Constant did it give?
**A.** The Exp Inhib Constant was 2.49.

**Q.** For OC[C@H]1O[C@H](OCC2O[C@@H](O)[C@H](O)[C@@H](O)[C@@H]2O)[C@H](O)[C@@H](O)[C@H]1O (stereo not given in full), which Exp Inhib Constant is on record?
**A.** Its Exp Inhib Constant is 2.79.

**Q.** With N#CC[C@]1(O)O[C@H](CO)[C@@H](O)[C@H](O)[C@H]1O as the compound, how does the Exp Inhib Constant read?
**A.** Its Exp Inhib Constant is 2.03.

**Q.** How did the Exp Inhib Constant turn out when NNC(=O)[C@@H]1O[C@H](CO)[C@@H](O)[C@H](O)[C@H]1O (stereo in doubt; 25) was run?
**A.** The Exp Inhib Constant was 1.1.
